In test [1] the test system is adjuvant-induced arthritis. Briefly: Rat adjuvant-induced arthritis (AIA) model. Format: in vivo. Conditions: s.c. The protocol: The rats were then inoculated intradermally (at the base of tail) with 0.5 mg heat-killed M. butyricum (BD Diagnostic Systems) in 100 μl light mineral oil (Sigma-Aldrich, St Louis, MO, USA). […] For each study, two or three rats from the same colony were not induced for arthritis and were used as healthy controls.
Unless noted otherwise, all drug treatments started on day 10 after arthritis induction and lasted for two consecutive weeks with biweekly (BIW, Mondays and Thursdays) or once-weekly (QW, Mondays) dosing regimens.
EC0746 was given subcutaneously (s.c.) in a dosing range of 25 to 1,000 nmol/kg (QW or BIW); MTX was given s.c. or orally at 250 nmol/kg (BIW) or 1,650 nmol/kg (QW); and etanercept (10 mg/kg) was given s.c. once every 3 days for a 12-day span. The QW MTX dosing regimen was to mimic MTX administration in humans, and this particular dose of 1,650 nmol/kg per week (that is, 0.75 mg/kg per week) was reportedly active as an intraperitoneal agent in the AIA model. To distinguish the anti-inflammatory mechanisms of EC0746 and MTX in vivo, a therapeutically irrelevant folate-containing competitor (EC0923, molecular weight 672) was used in 500-fold molar excess to block the activities of EC0746 and MTX at 250 nmol/kg (BIW).
Formalin-fixed hind paws were examined by a board-certified veterinary radiologist who had no knowledge of the study groups. Specific criteria were used to establish a numerical grade of severity for each radiographic change: increased soft tissue volume (0 to 4), narrowing or widening of joint spaces (0 to 5), subchondral erosion (0 to 3), periosteal reaction (0 to 4), osteolysis (0 to 4), subluxation (0 to 3), and degenerative joint changes (0 to 3). Scores are limited to the tarsus, and the maximum possible score per foot was 26 [39]. The histopathological analysis was also performed in a blind fashion by an independent contract laboratory (Bolder BioPATH Inc., Boulder, CO, USA). The arthritic ankles were scored on a scale of 0 to 5 for inflammation, bone resorption, pannus formation, and cartilage damage, with a maximal histology score of 20 per foot.

The target in test [2] is T1, dihydrofolate reductase (DHFR) (Mus musculus, UniProt P00375).
T1 construct: endogenous in cells; host or cells: RAW264.7 cells (FR-positive subclone of ATCC TIB71)
T1 sequence (P00375 1-187): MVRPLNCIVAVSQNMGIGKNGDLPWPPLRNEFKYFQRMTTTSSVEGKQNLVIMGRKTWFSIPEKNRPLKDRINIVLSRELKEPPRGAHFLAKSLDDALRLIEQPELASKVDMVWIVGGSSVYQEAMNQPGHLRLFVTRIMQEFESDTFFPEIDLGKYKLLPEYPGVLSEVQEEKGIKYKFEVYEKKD
Briefly: Dihydrofolate reductase inhibition assay in RAW264.7 whole cell lysates. Conditions: FA alone 10 μM, 2-hour pulse, 22-hour chase. It counts as cell-based, murine. On the procedure: RAW264.7 cells growing in FFRPMI medium in 10 cm cell culture dishes (BD Falcon, Lincoln Park, NJ, USA) were treated with EC0746 (100 nM), EC0746 (100 nM) plus 100-fold molar excess of FA (10 μM), or FA alone (10 μM). After a 2-hour exposure, the drug-containing media were replaced and the cells were allowed to incubate further for 22 hours in fresh FFRPMI medium (referred in the text as a 22-hour chase). Meanwhile, AMT and MTX were kept at 100 nM for the entire 24-hour incubation period. All cells were subsequently lysed in the radioimmunoprecipitation assay lysis buffer, and DHFR activities in the whole cell lysates were determined using a commercial DHFR assay kit (Sigma-Aldrich). This spectrophotometric assay monitors the enzymatic conversion of dihydrofolic acid to tetrahydrofolic acid by DHFR and the disappearance of the co-factor nicotinamide adenine dinucleotide phosphate at 340 nm. The results were normalized to the values of the untreated control cells.

Setting [3] is: 10 mg/kg on days 10, 13, 16, 19, 22.

Marks after values point to notes of the source that are not given here.

`Nc1nc2ncc(CNc3ccc(C(=O)N[C@@H](CCC(=O)N[C@H](CC(=O)O)C(=O)N[C@H](CC(=O)O)C(=O)O)C(=O)O)cc3)nc2c(=O)[nH]1` [EC0923, pteroyl-γGlu-d-Asp-d-Asp, reference compound]: in test [1] (125 μmol/kg biweekly, alone), the “Impact on development or severity of arthritis” value is listed as “did not have any impact” and the “Radiographic analysis of arthritic paws” value is “significant joint erosions”.

As for `Nc1nc(=O)c2nc(CNc3ccc(C(=O)N[C@@H](CCC(=O)O)C(=O)O)cc3)cnc2[nH]1` [FA, folic acid], in test [2], the “Effect on DHFR activity of cells” value is reported as “benign”.

With Etanercept, in test [1] (10 mg/kg every 3 days), the “Splenomegaly (percentage increase in spleen weight relative to healthy rats)” value turned out to be 42 ± 7%. Also, the “Inhibition in paw edema (%)” value in test [1] (10 mg/kg every 3 days, calculated based on arthritis scores on day 24) is 46 ± 9^f %. Moreover, the “Body weight change (%)” value in test [1] (10 mg/kg every 3 days, day 24 relative to day 10) is on record as -15 ± 2%. In addition, in test [1] (setting [3]), the “Decrease in summed histology score” value is given as 43%, the “Reduction in bone resorption (histology)” value is given as 55%, the “Reduction in dorsal to ventral paw thickness” value is 40% and the “Reduction in inflammation (histology)” value worked out at 42%.

The values are drawn from paper PMC3132048, “Treatment of experimental adjuvant arthritis with a novel folate receptor-targeted folic acid-aminopterin conjugate” (Arthritis Research & Therapy, 2011).
